Results from patent publication US9522935B2, “Commands and method of treating cancer via RHO pathway” (priority 2013, dated 2016).

Columns and labels:
[1] = system: Jak/STAT phosphorylation in PancI cells; experiment: Western Blotting of signal pathway proteins in PancI cells; format: cell-based, human
Protocol: The Jak/STAT channel plays an important role in cell growth, proliferation, and survival. Using Western Blotting, the present invention studied the effect of LD030 on Jak/STAT phosphorylation in PancI cells.
The cells were treated with LD030 at concentrations of 20 μM and 50 μM, for 4 hours, 8 hours, 24 hours, and 48 hours. After the treatment, the cells were collected and subject to lysis in the buffer (50 mM Tris-HCl pH7.5, 100 mM NaCl, 5 mM EDTA, 40 mM NaP2O7, 1% Triton X-100, 1 mM dithiothreitol, 200 μM Na3VO4, 100 μM phenylmethysufonyl fluoride fluoride, 2 μg/ml leupeptin, 4 μg/ml aprotinin and 0.7 μg/ml pepstatin). Analysis of stained protein (BioRad, 500-0006) was conduct for adjusting the protein concentration. Same quantity of protein (50 μg/lane) was used for 10% SDS-polyacrylamide gel electrophoresis, and then electrically transferred to the polyvinylidene fluoride (PVDF) membrane. The membrane was treated with antibodies specific to p-Jak2 (Cell signaling, 3771), p-Stat3 (Cell signaling, 9131) and α-tubulin (Zymed Laboratories, 32-2500). Visible protein bands were detected with an enhanced chemiluminescence (ECL Plus) detection system (Amersham).
The protein electrophoresis results in the above described experiments are shown FIGS. 23 and 24 for LD030 treatments at 20 μM and 50 μM, respectively. […] The expression of tubulin as internal reference was basically unchanged.

[2] = system: SF-268 (brain tumor cell lines); experiment: MTT assay, LD030 on SF-268; format: cell-based; settings: Homo sapiens; SF-268, 100 μM, 48 hours; read-out: inhibition rate on cell growth
Protocol: MTT assay, a well known method known in the art, was used to analyze anticancer effects of compound LD030 on human cancer cell lines, such as, HepG2 (liver cancer cell line), PancI (pancreatic cancer cell line), NCI-H460 (lung cancer cell line), MCF-7 (breast adenocarcinoma cell line) and SF-268 (brain tumor cell lines). An LD030 solution was diluted gradually to obtain a serial of LD030 solutions with decreasing concentrations, which was used to treat various cancer cell lines mentioned above incubated in separate container. […] For incubating with HepG2 cell line, LD030's concentrations were 0.001 μM, 0.01 μM, 0.1 μM, 1 μM, 10 μM, 100 μM. For PancI cell line, the concentrations were 0.1 μM, 1 μM, 10 μM, 100 μM. For NCI-H460 cell line, the concentrations were 0.001 μM, 0.01 μM, 0.1 μM, 1 μM, 10 μM, 100 μM. For MCF-7 cell line, the concentrations were 0.001 μM, 0.01 μM, 0.1 μM, 1 μM, 10 μM, 100 μM. For SF-268 cell line, the concentrations were 0.001 μM, 0.01 μM, 0.1 μM, 1 μM, 10 μM, 100 μM.

[3] = system: p-STAT3, p-JAK2, Bcl-XL, apoptosis protease 3, 9; experiment: Protein electrophoresis of extracts from treated allograft mouse; format: in vivo; settings: 0.01 mg/kg intraperitoneal injection, three times a week; versus control mouse
Protocol: LD030's effect on the growth of allograft pancreatic cancer cell lines was further studied as follows: Each mouse model was given 0.01 mg/kg LD030 via intraperitoneal injection, three times a week. […] Extracted from the treated mouse and the control mouse, the phosphorylation-signal transduction and activator of transcription (p-STAT3), phospho-JAK2 (p-JAK2), Bcl-XL, apoptosis protease 3, 9 and GADPH (glyceraldehyde-3-phosphate dehydrogenase, or […]) were subject to protein electrophoresis. […] GADPH was used as an internal reference, the expression of which was basically unchanged.

[4] = 20 μM, at 24 hours and 48 hours, versus blank control
[5] = 50 μM, at 24 hours and 48 hours, versus blank control

Question: With `CC(=O)OC(C)(C)C(=O)CCC(C)C1CC[C@@]2(C)C34CC[C@H]5C(C)(C)[C@@H](O)CC[C@]5(C)C3(CC[C@]12C)O4` (stereo partly shown) [LD030] as the compound, how does the p-jak2 [1, 4] read?
Answer: significantly reduced

Question: What about the “p-stat3 (tyr705)” value [1, 4] of the same compound?
Answer: significantly reduced

Question: And the p-JNK ([1]; 20 μM, versus blank control)?
Answer: up-regulates

Question: And the p-ERK [1, 5]?
Answer: significantly reduced

Question: What about the p-c-raf [1, 5] of the same compound?
Answer: significantly reduced

Question: What about the “expression of Cyclin D1” value ([1]; 50 μM, at 48 hours) of the same compound?
Answer: decreased

Question: And the “expression of p-JNK” value ([1]; 50 μM, versus blank control)?
Answer: increased

Question: And the “expression of p-p38” value ([1]; 50 μM, versus blank control)?
Answer: increased

Question: What about the inhibition at 100 µM [2] of the same compound?
Answer: > 80%

Question: What about the “expression of Bcl-XL” value [3] of the same compound?
Answer: significantly reduced

Question: And the “expression of apoptosis protease 3, 9” value [3]?
Answer: significantly increased

Question: And the “expression of p-JAK2” value [3]?
Answer: significantly reduced

Question: What about the “expression of p-STAT3” value [3] of the same compound?
Answer: significantly reduced
